Where a SMILES comes first, the peptide text is derived from it. Bridges are numbered along the chain shown (N, C = ends). [ ]: non-standard residue; d: D form. The star is where a group is joined. ξ: configuration not given here. Ala(6-(2-MePh)pyridin-3-yl) = Cc1ccccc1-c1ccc(C[C@H](N)C(=O)O)cn1; Phe(3-CF3) = N[C@@H](Cc1cccc(C(F)(F)F)c1)C(=O)O; Ala(morpholin-4-yl) = N[C@@H](CN1CCOCC1)C(=O)O; Phe(4-COOH) = N[C@@H](Cc1ccc(C(=O)O)cc1)C(=O)O; Bip = N[C@@H](Cc1ccc(-c2ccccc2)cc1)C(=O)O; Phe(3-Me) = Cc1cccc(C[C@H](N)C(=O)O)c1; Phe(4-Me) = Cc1ccc(C[C@H](N)C(=O)O)cc1; NMehArg = CN[C@@H](CCCCNC(=N)N)C(=O)O; Val(3-OH) = CC(C)(O)[C@H](N)C(=O)O; 4Pal = N[C@@H](Cc1ccncc1)C(=O)O; Cha = N[C@@H](CC1CCCCC1)C(=O)O; Cit = NC(=O)NCCC[C@H](N)C(=O)O; Gly(cPr) = N[C@H](C(=O)O)C1CC1; Thr(3ξ) = CC(O)[C@H](N)C(=O)O; dNle = CCCC[C@@H](N)C(=O)O; Carboxymethyl = O=C(O)C*; Nle = CCCC[C@H](N)C(=O)O; Orn = NCCC[C@H](N)C(=O)O; Dab = NCC[C@H](N)C(=O)O; Dap = NC[C@H](N)C(=O)O
biological target: T1, human PD-1 / PD-L1-Ig binding on Jurkat cell line over-expressing human PD-1 (Jurkat-PD-1) (Homo sapiens, UniProt Q15116); test: Jurkat-PD-1 Cell Binding High-Content Screening Assay (CBA); type: cell-based; settings: Jurkat HPD1_PDL1 IC50, Jurkat-PD-1 cells, PE-labeled PD-L1-Ig 20 nM final
T1 construct: expressed in transfected cells; host or cells: Jurkat
T1 sequence (Q15116 25-288): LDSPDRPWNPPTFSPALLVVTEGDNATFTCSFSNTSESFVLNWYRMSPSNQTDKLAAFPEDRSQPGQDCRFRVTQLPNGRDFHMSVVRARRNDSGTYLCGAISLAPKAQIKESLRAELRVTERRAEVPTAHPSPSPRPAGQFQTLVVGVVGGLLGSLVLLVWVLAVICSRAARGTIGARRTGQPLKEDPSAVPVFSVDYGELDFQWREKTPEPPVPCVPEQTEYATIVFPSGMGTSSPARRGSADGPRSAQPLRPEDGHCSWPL
How it was run: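 PE-PD-L1-Ig 20 nM final; cells in DMEM/10% FCS; cpd pre-incubation 2 h, 37° C; ligand 1 h; PFA fix + Hoechst 33342; high-content imaging read-out.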

Row | Structure (SMILES) | IC50 [nM]
1 | CC(C)C[C@H]1NC(=O)[C@H](CCCN)NC(=O)[C@H](C(C)C)NC(=O)[C@H](Cc2ccc(-c3ccccc3)cc2)NC(=O)[C@H](C(C)C)NC(=O)[C@H](Cc2c[nH]c3ccccc23)NC(=O)[C@H](CC(=O)O)NC(=O)[C@H](Cc2ccc(OCC(=O)O)cc2)NC(=O)[C@H](Cc2ccc(OCc3ccccc3)cc2)NC(=O)CSC[C@@H](C(=O)N[C@@H](C)C(N)=O)NC(=O)[C@H]([C@@H](C)O)NC(=O)[C@H](C(C)C)NC(=O)[C@H](CC2CCCCC2)NC(=O)[C@H](CCN)NC1=O [Compound 1527] | 103

same assay, conditions: Jurkat-PD-1 cells, PE-labeled PD-L1-Ig 20 nM final; read-out: Jurkat HPD1_PDL1 IC50

Row | Structure (SMILES) | IC50 [nM]
2 | CC(C)C[C@H]1NC(=O)[C@H](CCCN)NC(=O)[C@H](C(C)C)NC(=O)[C@H](Cc2ccc(-c3ccccc3)cc2)NC(=O)[C@H](C(C)C)NC(=O)[C@H](Cc2c[nH]c3ccccc23)NC(=O)[C@H](CC(=O)O)NC(=O)[C@H](Cc2ccc(OCC(=O)O)cc2)NC(=O)[C@H](CCCCNC(=N)N)N(C)C(=O)CSC[C@@H](C(=O)N[C@@H](C)C(N)=O)NC(=O)[C@H](CO)NC(=O)[C@H](C(C)C)NC(=O)[C@H](CC2CCCCC2)NC(=O)[C@H](CCN)NC1=O [Compound 2513] ({CH2CO}-[NMehArg]Y(Carboxymethyl)DWV[Bip]V[Orn][dL][Dab][Cha]VSCA-NH2; thioether N-14) | 18
3 | Cc1cccc(C[C@@H]2NC(=O)[C@H](CC(=O)O)NC(=O)[C@H](Cc3ccncc3)NC(=O)[C@H](Cc3ccc(OCC(=O)O)cc3)NC(=O)CSC[C@@H](C(=O)N[C@@H](C)C(N)=O)NC(=O)[C@H]([C@@H](C)O)NC(=O)[C@H](C(C)C)NC(=O)[C@H](CC(C)C)NC(=O)[C@H](CCN)NC(=O)[C@@H](CC(C)C)NC(=O)[C@H](CCCN)NC(=O)[C@H](CCCNC(N)=O)NC(=O)[C@H](Cc3ccc(-c4ccccc4)cc3)NC(=O)[C@H](C(C)C)NC2=O)c1 [Compound 1324] ({CH2CO}-Y(Carboxymethyl)[4Pal]D[Phe(3-Me)]V[Bip][Cit][Orn][dL][Dab]LVTCA-NH2; thioether N-14) | 15.5
4 | Cc1cccc(C[C@@H]2NC(=O)[C@H](CC(=O)O)NC(=O)[C@H](Cc3ccncc3)NC(=O)[C@H](CN)NC(=O)CSC[C@@H](C(N)=O)NC(=O)[C@H]([C@@H](C)O)NC(=O)[C@H](C(C)C)NC(=O)[C@H](CC(C)C)NC(=O)[C@H](CCN)NC(=O)[C@@H](CC(C)C)NC(=O)[C@H](CCCN)NC(=O)[C@H](C(C)C)NC(=O)[C@H](Cc3ccc(-c4ccccc4)cc3)NC(=O)[C@H](C(C)C)NC2=O)c1 [Compound 1550] ({CH2CO}-[Dap][4Pal]D[Phe(3-Me)]V[Bip]V[Orn][dL][Dab]LVTC-NH2; thioether N-14) | 94.5
5 | CC(C)C[C@H]1NC(=O)[C@H](CCCN)NC(=O)[C@H](CCC(=O)O)NC(=O)[C@H](Cc2ccc(-c3ccccc3)cc2)NC(=O)[C@H](C(C)C)NC(=O)[C@H](Cc2c[nH]c3ccccc23)NC(=O)[C@H](CC(=O)O)NC(=O)[C@H](Cc2ccc(OCC(=O)O)cc2)NC(=O)[C@H](CN)NC(=O)CSC[C@@H](C(=O)N[C@@H](C)C(N)=O)NC(=O)[C@H]([C@@H](C)O)NC(=O)[C@H](C(C)C)NC(=O)[C@H](Cc2ccn[nH]2)NC(=O)[C@H](CCN)NC1=O [Compound 1509] | 413
6 | CCC(C)[C@@H]1NC(=O)[C@H](Cc2ccc(-c3ccccc3)cc2)NC(=O)[C@H](C(C)C)NC(=O)[C@H](Cc2cccc(C)c2F)NC(=O)[C@H](CC(=O)O)NC(=O)[C@H](Cc2ccc(OCC(=O)O)cc2)NC(=O)[C@H](CN)NC(=O)CSC[C@@H](C(=O)N[C@@H](C)C(N)=O)NC(=O)[C@H]([C@@H](C)O)NC(=O)[C@H](C(C)C)NC(=O)[C@H](CC2CCCCC2)NC(=O)[C@H](CCN)NC(=O)[C@@H](CC(C)C)NC(=O)[C@H](CCCN)NC1=O (stereo partly drawn) [Compound 2243] | 16.2
7 | CCCC[C@@H]1NC(=O)[C@H](CCCNC(=N)N)NC(=O)[C@@H](CC(C)C)NC(=O)[C@H](CCCN)NC(=O)[C@H](CCCNC(N)=O)NC(=O)[C@H](Cc2ccc(-c3ccccc3)cc2)NC(=O)[C@H](C(C)C)NC(=O)[C@H](Cc2c[nH]c3ccccc23)NC(=O)[C@H](CC(=O)O)NC(=O)[C@H](Cc2ccc(O)cc2)NC(=O)[C@H](CC(N)=O)NC(=O)CSC[C@@H](C(=O)N[C@@H](C)C(N)=O)NC(=O)[C@H]([C@@H](C)O)NC(=O)[C@H](C(C)C)NC1=O [Compound 1177] ({CH2CO}-NYDWV[Bip][Cit][Orn][dL]R[Nle]VTCA-NH2; thioether N-14) | 78.9
8 | CC(C)C[C@H]1NC(=O)[C@H](CCCN)NC(=O)[C@H](C(C)C)NC(=O)[C@H](Cc2ccc(-c3ccccc3)cc2)NC(=O)[C@H](C2CC2)NC(=O)[C@H](Cc2c[nH]c3ccccc23)NC(=O)[C@H](CC(=O)O)NC(=O)[C@H](Cc2ccc(OCC(=O)O)cc2)NC(=O)[C@H](CN)NC(=O)CSC[C@@H](C(=O)N[C@@H](C)C(N)=O)NC(=O)[C@H]([C@@H](C)O)NC(=O)[C@H](C(C)C)NC(=O)[C@H](CC2CCCCC2)NC(=O)[C@H](CCN)NC1=O [Compound 1732] ({CH2CO}-[Dap]Y(Carboxymethyl)DW[Gly(cPr)][Bip]V[Orn][dL][Dab][Cha]VTCA-NH2; thioether N-14) | 18.3
9 | CC(C)C[C@H]1NC(=O)[C@H](CCCN)NC(=O)[C@H](CCC(=O)O)NC(=O)[C@H](Cc2ccc(-c3ccccc3)cc2)NC(=O)[C@H](C(C)C)NC(=O)[C@H](Cc2c[nH]c3ccccc23)NC(=O)[C@H](CC(=O)O)NC(=O)[C@H](Cc2ccc(-c3cccc(C(=O)O)c3)cc2)NC(=O)[C@H](CN)NC(=O)CSC[C@@H](C(=O)N[C@@H](C)C(N)=O)NC(=O)[C@H]([C@@H](C)O)NC(=O)[C@H](C(C)C)NC(=O)[C@H](CC2CCCCC2)NC(=O)[C@H](CCN)NC1=O [Compound 2166] | 22.7
10 | CC(C)C[C@@H]1NC(=O)[C@H](Cc2c[nH]c3ccccc23)NC(=O)[C@H](CC(=O)O)NC(=O)[C@H](Cc2ccc(O)cc2)NC(=O)[C@H](Cc2ccccc2)NC(=O)CSC[C@@H](C(=O)N[C@@H](C)C(N)=O)NC(=O)[C@H](CO)NC(=O)[C@H](C(C)C)NC(=O)[C@H](CC(C)C)NC(=O)[C@H](CC(N)=O)NC(=O)[C@@H](CC(C)C)NC(=O)[C@H](CCCN)NC(=O)[C@H](C(C)C)NC(=O)[C@H](Cc2ccc(-c3ccccc3)cc2)NC1=O [Compound 1065] ({CH2CO}-FYDWL[Bip]V[Orn][dL]NLVSCA-NH2; thioether N-14) | 12.8
11 | CCCC[C@H]1NC(=O)[C@H](CCCN)NC(=O)[C@H](CCCNC(N)=O)NC(=O)[C@H](Cc2ccc(-c3ccccc3)cc2)NC(=O)[C@H](C(C)C)NC(=O)[C@H](Cc2c[nH]c3ccccc23)NC(=O)[C@H](CC(=O)O)NC(=O)[C@H](Cc2ccc(O)cc2)NC(=O)[C@H](CC(N)=O)NC(=O)CSC[C@@H](C(=O)N[C@@H](C)C(N)=O)NC(=O)[C@H]([C@@H](C)O)NC(=O)[C@H](C(C)C)NC(=O)[C@H](CC2CCCCC2)NC(=O)[C@H](CCN)NC1=O [Compound 1704] ({CH2CO}-NYDWV[Bip][Cit][Orn][dNle][Dab][Cha]VTCA-NH2; thioether N-14) | 35.8
12 | Cc1cccc(C[C@@H]2NC(=O)[C@H](CC(=O)O)NC(=O)[C@H](Cc3ccncc3)NC(=O)[C@H](CN)NC(=O)CSC[C@@H](C(=O)N[C@@H](C)C(N)=O)NC(=O)[C@H]([C@@H](C)O)NC(=O)[C@H](C(C)C)NC(=O)[C@H](CC3CCCCC3)NC(=O)[C@H](CCN)NC(=O)[C@@H](Cc3ccccc3)NC(=O)[C@H](CCCN)NC(=O)[C@H](CCC(=O)O)NC(=O)[C@H](Cc3ccc(-c4ccccc4)cc3)NC(=O)[C@H](C(C)C)NC2=O)c1 [Compound 1429] ({CH2CO}-[Dap][4Pal]D[Phe(3-Me)]V[Bip]E[Orn][dF][Dab][Cha]VTCA-NH2; thioether N-14) | 9.5
13 | CC(C)C[C@@H]1NC(=O)[C@H](Cc2c[nH]c3ccccc23)NC(=O)[C@H](CC(=O)O)NC(=O)[C@H](Cc2ccc(O)cc2)NC(=O)[C@H](Cc2ccccc2)NC(=O)CSC[C@@H](C(=O)N[C@@H](C)C(N)=O)NC(=O)[C@H]([C@@H](C)O)NC(=O)[C@H](C(C)C)NC(=O)[C@H](CC(C)C)NC(=O)[C@H](CC(N)=O)NC(=O)[C@@H](C)NC(=O)[C@H](CCCN)NC(=O)[C@H](C(C)C)NC(=O)[C@H](Cc2ccc(-c3ccccc3)cc2)NC1=O [Compound 1092] ({CH2CO}-FYDWL[Bip]V[Orn][dA]NLVTCA-NH2; thioether N-14) | 229
14 | Cc1ccc(C[C@@H]2NC(=O)[C@H](C(C)O)NC(=O)CSC[C@@H](C(=O)N[C@@H](CCN)C(N)=O)NC(=O)[C@H](CO)NC(=O)[C@H](C(C)(C)O)NC(=O)[C@H](CC3CCCCC3)NC(=O)[C@H](CCN)NC(=O)[C@@H](CC(C)C)NC(=O)[C@H](CCCN)NC(=O)[C@H](Cc3ccc(OCC(=O)O)cc3)NC(=O)[C@H](Cc3ccc(-c4ccccc4)cc3)NC(=O)[C@H](Cc3ccc(OCC(=O)O)cc3)NC(=O)[C@H](Cc3cccc(C)c3)NC(=O)[C@H](CC(=O)O)NC2=O)cc1 (stereo partly drawn) [Compound 2667] ({CH2CO}-[Thr(3ξ)][Phe(4-Me)]D[Phe(3-Me)]Y(Carboxymethyl)[Bip]Y(Carboxymethyl)[Orn][dL][Dab][Cha][Val(3-OH)]SC[Dab]-NH2; thioether N-14) | 11.4
15 | Cc1ccccc1-c1ccc(C[C@@H]2NC(=O)[C@H](Cc3cccc(C(F)(F)F)c3)NC(=O)[C@H](CC(=O)O)NC(=O)[C@H](Cc3ccc(C(=O)O)cc3)NC(=O)[C@H](CN3CCOCC3)NC(=O)CSC[C@@H](C(=O)N[C@@H](CCN)C(N)=O)NC(=O)[C@H](CCC(=O)O)NC(=O)[C@H](C(C)C)NC(=O)[C@H](CC3CCCCC3)NC(=O)[C@H](CCN)NC(=O)[C@@H](CC(C)C)NC(=O)[C@H](CCCN)NC(=O)[C@H](Cc3ccc(C(=O)O)cc3)NC(=O)[C@H](Cc3ccc(-c4ccccc4)cc3)NC2=O)cn1 [Example 2732] ({CH2CO}-[Ala(morpholin-4-yl)][Phe(4-COOH)]D[Phe(3-CF3)][Ala(6-(2-MePh)pyridin-3-yl)][Bip][Phe(4-COOH)][Orn][dL][Dab][Cha]VEC[Dab]-NH2; thioether N-14) | 1.7
